According to US20050101595A1, “N-containing cycloalkyl-substituted amino-thiazole derivatives and pharmaceutical compositions for inhibiting cell proliferation and methods for their use” (PFIZER INC., priority 2003, published 2005):
Where a name gives a salt, the structure may show the parent alone. Read-outs that look alike come from different tables or passages of the source.

What was measured:
CDK2/Cyclin A = CDK2/Cyclin A (Homo sapiens, UniProt P24941); assay: Inhibition of CDK2/Cyclin A Retinoblastoma Kinase Activity; assay type: biochemical; conditions: for Ki: apparent Ki, CDK2/proteolyzed cyclin A, Rb fragment substrate, 25 μM ATP
In short: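 Radiometric filter-binding readout of phosphate transfer to an Rb substrate fragment by purified CDK2/truncated cyclin A at 10 or 19 nM. Run at pH 7.4 with 25 μM ATP, 30 °C, 60–75 min, linear rates; background without enzyme subtracted, Ki from competitive-inhibition models.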

HCT-116 cell line = assay: Inhibition of cell growth, tetrazolium salt (MTT) assay; assay type: cell-based; conditions: for IC50: Homo sapiens, HCT-116, 120 h, MTT, three to five days, read-out: HCT-116 IC50; for HCT-116 % Inhibition at 0.25 μM: 0.25 μM compound
In short: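 First, cells were seeded in McCoy's 5A medium and held 4 h. Next, inhibitor concentrations in 0.5% (v/v) DMSO were applied for three to five days at 37° C, 5% CO2. Finally, after 4 h with 0.2 mg/mL MTT and medium removal, solubilized formazan was measured at 540 nm.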

[1] = biological target: human CDK4 and genetically truncated (1-264) cyclin D3 (Homo sapiens, UniProt P11802); assay: Inhibition of CDK4/Cyclin D Retinoblastoma Kinase Activity; assay type: biochemical; conditions: for Ki: apparent Ki, CDK4/truncated cyclin D3, Rb fragment substrate, 25 μM ATP
Description: Cyclin-dependent kinase activity was measured by quantifying the enzyme-catalyzed, time-dependent incorporation of radioactive phosphate from [^32P]ATP or [^33P]ATP into a protein substrate. Unless noted otherwise, assays were performed in 96-well plates in a total volume of 50 μL, in the presence of 10 mM HEPES (N-[2-hydroxyethyl]piperazine-N′-[2-ethanesulfonic acid]) (pH 7.4), 10 mM MgCl2, 25 μM adenosine triphosphate (ATP), 1 mg/mL ovalbumin, 5 μg/mL leupeptin, 1 mM dithiothreitol, 10 mM β-glycerophosphate, 0.1 mM sodium vanadate, 1 mM sodium fluoride, 2.5 mM ethylene glycol-bis(β-aminoethyl ether)-N,N,N′N′-tetraacetic acid (EGTA), 2% (v/v) dimethylsulfoxide, and 0.03-0.4 μCi [^32/33P]ATP per reaction. Reactions were initiated with enzyme, incubated at 30° C., and terminated after 20 minutes by the addition of ethylenediaminetetraacetic acid (EDTA) to 250 mM. The phosphorylated substrate was then captured on a nitrocellulose or phosphocellulose membrane using a 96-well filtration manifold, and unincorporated radioactivity was removed by repeated washing with 0.85% phosphoric acid. Radioactivity was quantified by exposing the dried membranes to a phosphorimager.
Inhibition was measured relative to control wells that contained all reaction components including 2% (v/v) DMSO but no compound, after subtraction of background radioactivity measured in the absence of enzyme. Apparent Ki values of discrete compounds were measured by assaying enzyme activity in the presence of different inhibitor compound concentrations and subtracting the background radioactivity measured in the absence of enzyme. The kinetic parameters (kcat, Km for ATP) were measured for each enzyme under the usual assay conditions by determining the dependence of initial rates on ATP concentration. Inhibition data were fit to an equation for competitive inhibition using Kaleidagraph (Synergy Software), or were fit to an equation for competitive tight-binding inhibition using the software KineTic (BioKin, Ltd.).
Inhibition of CDK4/Cyclin D Retinoblastoma Kinase Activity:
A complex of human CDK4 and genetically truncated (1-264) cyclin D3 was purified using traditional biochemical chromatographic techniques from insect cells that had been co-infected with the corresponding baculovirus expression vectors (see e.g., Meijer and Kim, “Chemical Inhibitors of Cyclin-Dependent Kinases,” Methods in Enzymol,. vol. 283 (1997), pp. 113-128.). The enzyme complex (5 nM) was assayed with 0.3-0.5 μg of purified recombinant retinoblastoma protein fragment (Rb) as a substrate. The engineered Rb fragment (residues 386-928 of the native retinoblastoma protein; 62.3 kDa) contains the majority of the phosphorylation sites found in the native 106-kDa protein, as well as a tag of six histidine residues for ease of purification. Phosphorylated Rb substrate was captured by microfiltration on a nitrocellulose membrane and quantified using a phosphorimager as described above. For measurement of tight-binding inhibitors, the assay duration was extended to 60 minutes, during which the time-dependence of product formation was linear and initial rate conditions were met.

[2] = 0.1 μM compound, HCT-116, Table 4

human CDK4 and genetically truncated (1-264) cyclin D3, sequence (P11802 whole entry, the tested form may be a part): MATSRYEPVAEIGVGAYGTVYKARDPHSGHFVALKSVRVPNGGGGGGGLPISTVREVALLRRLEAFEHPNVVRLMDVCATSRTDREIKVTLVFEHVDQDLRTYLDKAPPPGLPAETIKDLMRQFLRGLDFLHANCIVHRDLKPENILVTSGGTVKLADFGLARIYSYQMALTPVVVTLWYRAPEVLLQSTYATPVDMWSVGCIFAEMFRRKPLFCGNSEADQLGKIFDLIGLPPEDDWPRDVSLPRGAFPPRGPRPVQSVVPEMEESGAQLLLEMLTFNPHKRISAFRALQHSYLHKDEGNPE
human CDK4 and genetically truncated (1-264) cyclin D3, sequence (P30281 1-264 partner): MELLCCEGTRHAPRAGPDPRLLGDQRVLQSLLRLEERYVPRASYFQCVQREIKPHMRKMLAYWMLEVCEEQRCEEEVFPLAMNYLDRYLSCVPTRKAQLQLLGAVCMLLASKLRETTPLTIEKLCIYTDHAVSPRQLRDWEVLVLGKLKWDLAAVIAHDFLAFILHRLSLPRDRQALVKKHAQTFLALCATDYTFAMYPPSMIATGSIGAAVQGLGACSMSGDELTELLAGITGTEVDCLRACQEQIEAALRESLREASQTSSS

SMILES	Ki (CDK2/Cyclin A) [nM]	IC50 (HCT-116 cell line; first HCT-116 column (c4)) [nM]	IC50 (HCT-116 cell line; second HCT-116 column (c5)) [nM]	Ki [1] [nM]	CDK2 % Inhibition at 0.03 μM (CDK2/Cyclin A; at 0.03 μM) [%]	HCT-116 % Inhibition at 0.1 μM (HCT-116 cell line; HCT-116 cells, at 0.1 μM) [%]	HCT-116 5 Inhibition at 0.25 μM (HCT-116 cell line; HCT-116 cells)	CDK4 % Inhibition at 0.03 μM ([1]; at 0.03 μM) [%]	other results
C[C@@H]1CN(c2ncc(S(=O)(=O)N3CCC(Nc4nc(N)c(C(=O)c5c(F)cccc5F)s4)CC3)cn2)C[C@H](C)N1 [Example G33, (4-Amino-2-{1-[2-(3,5-dimethyl-piperazine-1-yl)-pyrimidine-5-sulfonyl]-piperidine-4-ylamino}-thiazol-5-yl)-(2,6-difluoro-phenyl)-methanone Hydrochloride Salt]	1	51	800	0.3					
Nc1nc(NC2CCN(C(=O)c3cccnc3Cl)CC2)sc1C(=O)c1c(F)cccc1F [Example R18]					25	0	45	46	
Nc1nc(NC2CCN(S(=O)(=O)c3ccc(N4CCCC(O)C4)nc3)CC2)sc1C(=O)c1c(F)cccc1F (stereo not drawn) [Example G12, 1-{4-Amino-2-[1-(3-hydroxy-3,4,5,6-tetrahydro-2H-[1,2′]bipyridinyl-5′-sulfonyl)-piperidin-4-ylamino]-thiazol-5-yl}-1-(2,6-difluoro-phenyl)-methanone Trifluoroacetic Acid Salt]	0.49	280	> 500	1.2					
Nc1nc(NC2CCN(C(=O)CCOc3ccccc3)CC2)sc1C(=O)c1c(F)cccc1F [Example R173]					23	0	43	43	
Nc1nc(NC2CCN(C(=O)CC3CCCCC3)CC2)sc1C(=O)c1c(F)cccc1F [Example R100]					−5	0	49	10	
CCOC(=O)CCCC(=O)N1CCC(Nc2nc(N)c(C(=O)c3c(F)cccc3F)s2)CC1 [Example R3]					−6	8	37	42	
Nc1nc(NC2CCN(C(=O)c3cc([N+](=O)[O-])cc([N+](=O)[O-])c3)CC2)sc1C(=O)c1c(F)cccc1F [Example Q70]									CDK2 % Inhibition at 0.03 μM (CDK2/Cyclin A; 0.03 μM compound, Table 4): 19%; HCT-116 % Inhibition at 0.1 μM (HCT-116 cell line; [2]): 5%; HCT-116 % Inhibition at 0.25 μM (HCT-116 cell line; HCT-116, Table 4): 26%; CDK4 % Inhibition at 0.03 μM ([1]; 0.03 μM compound, Table 4): 38%
N#Cc1ccccc1S(=O)(=O)N1CCC(Nc2nc(N)c(C(=O)c3c(F)cccc3F)s2)CC1 [Example P48]									CDK2 % Inhibition at 0.03 μM (CDK2/Cyclin A; 0.03 μM compound, Table 3): 59%; HCT-116 % Inhibition at 0.1 μM (HCT-116 cell line; 0.1 μM compound, HCT-116, Table 3): 24%; HCT-116 % Inhibition at 0.25 μM (HCT-116 cell line; HCT-116, Table 3): 31%; CDK4 % Inhibition at 0.03 μM ([1]; 0.03 μM compound, Table 3): 67%
Nc1nc(NC2CCN(S(=O)(=O)c3ccc(CCN4CCCC4)nc3)CC2)sc1C(=O)c1c(F)cccc1F [Example N2, (4-Amino-2-{1-[6-(2-pyrrolidin-1-yl-ethyl)-pyridine-3-sulfonyl]-piperidin-4-ylamino}-thiazol-5-yl)-(2,6-difluoro-phenyl)-methanone Hydrochloride Salt.]	1.2	230	> 500	0.49					
COC(=O)[C@@H](NC(=O)N1CCC(Nc2nc(N)c(C(=O)c3c(F)cccc3F)s2)CC1)C(C)C [Example O76]									CDK2 % Inhibition At 0.03 μM (CDK2/Cyclin A; 0.03 μM compound, Table 2): 22%; HCT-116 % Inhibition at 0.25 μM (HCT-116 cell line; HCT-116, Table 2): 49%; CDK4 % Inhibition at 0.03 μM ([1]; 0.03 μM compound, Table 2): 5%
CC(C)(C)c1cc(C(=O)N2CCC(Nc3nc(N)c(C(=O)c4c(F)cccc4F)s3)CC2)n(Cc2ccccc2)n1 [Example R58]					41	5	44	72	
COC(=O)CCCCC(=O)N1CCC(Nc2nc(N)c(C(=O)c3c(F)cccc3F)s2)CC1 [Example R4]					−5	3	47	32	
Nc1nc(NC2CCN(C(=O)c3ccc(Cl)cc3)CC2)sc1C(=O)c1c(F)cccc1F [Example Q27]									CDK2 % Inhibition at 0.03 μM (CDK2/Cyclin A; 0.03 μM compound, Table 4): 32%; HCT-116 % Inhibition at 0.1 μM (HCT-116 cell line; [2]): 4%; HCT-116 % Inhibition at 0.25 μM (HCT-116 cell line; HCT-116, Table 4): 40%; CDK4 % Inhibition at 0.03 μM ([1]; 0.03 μM compound, Table 4): 76%
Nc1nc(NC2CCN(S(=O)(=O)c3ccc(CCNc4ccccc4O)nc3)CC2)sc1C(=O)c1c(F)cccc1F [Example N1, [4-Amino-2-(1-{6-[2-(2-hydroxy-phenylamino)-ethyl]-pyridine-3-sulfonyl}-piperidin-4-ylamino)-thiazol-5-yl]-(2,6-difluoro-phenyl)-methanone Trifluoroacetic Acid Salt.]	0.28	860	1600	0.49					
CC(C)S(=O)(=O)c1csc(C(=O)N2CCC(Nc3nc(N)c(C(=O)c4c(F)cccc4F)s3)CC2)c1Cl [Example C5, (4-Amino-2-{1-[3-chloro-4-(propane-2-sulfonyl)-thiophene-2-carbonyl]-piperidin-4-ylamino}-thiazol-5-yl)-(2,6-difluoro-phenyl)-methanone]	81	1900	4000	8					
Cc1ccc(C(=O)N2CCC(Nc3nc(N)c(C(=O)c4c(F)cccc4F)s3)CC2)cc1 [Example R154]					50	0	27	63	
CCCC(C)C(=O)N1CCC(Nc2nc(N)c(C(=O)c3c(F)cccc3F)s2)CC1 (stereo not drawn) [Example R165]					3	0	42	22	
CC(=O)Nc1ccc(S(=O)(=O)N2CCCC(Nc3nc(N)c(C(=O)c4c(F)cccc4F)s3)C2)cc1 (stereo not drawn) [Example F36, N-(4-{3-[4-Amino-5-(2,6-difluoro-benzoyl)-thiazol-2-ylamino]-piperidine-1-sulfonyl}-phenyl)-acetamide]	480	> 5000	> 5000	780					
Nc1nc(NC2CCN(C(=O)c3cccc(C(F)(F)F)c3)CC2)sc1C(=O)c1c(F)cccc1F [Example Q24]									CDK2 % Inhibition at 0.03 μM (CDK2/Cyclin A; 0.03 μM compound, Table 4): 31%; HCT-116 % Inhibition at 0.1 μM (HCT-116 cell line; [2]): 36%; HCT-116 % Inhibition at 0.25 μM (HCT-116 cell line; HCT-116, Table 4): 71%; CDK4 % Inhibition at 0.03 μM ([1]; 0.03 μM compound, Table 4): 65%
